Laboratory results taken from patent publication US20120029187A1, “HALOALKYLSULFONANILIDE DERIVATIVE” (Nissan Chemical Industries, Ltd., priority 2009, published 2012).

Key:
Assay type in all cases: in vivo
[1] = system: common ragweed; assay: Test Example 4: herbicidal effect in foliage treatment; conditions: dose 3.2 g/a
Outline: (§1)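 14-day greenhouse-grown plants (25–30° C) sprayed on foliage with diluted EC; dose as g/a; effect graded after 3 weeks.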

[2] = system: common chickweed; assay: as above; conditions: dose 3.2 g/a
Outline: as §1

[3] = system: common lambsquater; assay: as above; conditions: dose 3.2 g/a
Outline: as §1

[4] = system: water foxtail; assay: as above; conditions: dose 3.2 g/a
Outline: as §1

[5] = system: barnyardgrass; assay: as above; conditions: dose 3.2 g/a
Outline: as §1

[6] = system: large crabgrass; assay: as above; conditions: dose 3.2 g/a
Outline: as §1

[7] = system: wild oat; assay: as above; conditions: dose 3.2 g/a
Outline: as §1

[8] = system: redroot pigweed; assay: as above; conditions: dose 3.2 g/a
Outline: as §1

[9] = system: velvetleaf; assay: as above; conditions: dose 3.2 g/a
Outline: as §1

[10] = system: Italian ryegrass; assay: as above; conditions: dose 3.2 g/a
Outline: as §1

[11] = system: giant foxtail; assay: as above; conditions: dose 3.2 g/a
Outline: as §1

[12] = system: beadstraw; assay: as above; conditions: dose 3.2 g/a
Outline: as §1

[13] = system: posumbu knotweed; assay: as above; conditions: dose 3.2 g/a
Outline: as §1

[14] = system: transplanted rice; assay: Test Example 1: preemergence treatment under submerged conditions, effect on crop; conditions: dose 2.52 g/a
Outline: (§2)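 Alluvial soil flooded to 4 cm depth; barnyardgrass, bulrush and ducksalad sown and 2.5-leaf rice seedlings transplanted. Same day, water-diluted emulsifiable concentrates applied to the water surface at set doses (g/a). Kept at 25–30 °C in greenhouse; effects scored 0–5 by mortality after three weeks.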

[15] = system: common ragweed; assay: Test Example 3: herbicidal effects in soil treatment; conditions: dose 3.2 g/a
Outline: (§3)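 Seeds were sown in sterilized diluvial soil and covered with about 1.5 cm of soil. Compounds, formulated as emulsifiable concentrates and diluted with water, were sprayed evenly over the soil surface at set doses in g/a. Herbicidal effect was scored on a rating scale three weeks later.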

[16] = system: common chickweed; assay: as above; conditions: dose 3.2 g/a
Outline: as §3

[17] = system: common lambsquater; assay: as above; conditions: dose 3.2 g/a
Outline: as §3

[18] = system: water foxtail; assay: as above; conditions: dose 3.2 g/a
Outline: as §3

[19] = system: barnyardgrass; assay: as above; conditions: dose 3.2 g/a
Outline: as §3

[20] = system: large crabgrass; assay: as above; conditions: dose 3.2 g/a
Outline: as §3

[21] = system: wild oat; assay: as above; conditions: dose 3.2 g/a
Outline: as §3

[22] = system: redroot pigweed; assay: as above; conditions: dose 3.2 g/a
Outline: as §3

[23] = system: velvetleaf; assay: as above; conditions: dose 3.2 g/a
Outline: as §3

[24] = system: Italian ryegrass; assay: as above; conditions: dose 3.2 g/a
Outline: as §3

[25] = system: giant foxtail; assay: as above; conditions: dose 3.2 g/a
Outline: as §3

[26] = system: posumbu knotweed; assay: as above; conditions: dose 3.2 g/a
Outline: as §3

[27] = system: bulrush; assay: Test Example 1: herbicidal effects in preemergence treatment under submerged conditions; conditions: dose 2.52 g/a
Outline: as §2

[28] = system: barnyardgrass; assay: as above; conditions: dose 2.52 g/a
Outline: as §2

[29] = system: ducksalad; assay: as above; conditions: dose 2.52 g/a
Outline: as §2

[30] = system: bulrush; assay: Test Example 2: herbicidal effects during the vegetation period under submerged conditions; conditions: treatment during the vegetation period under submerged conditions; dose 2.52 g/a
Outline: (§4)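 Barnyardgrass, bulrush and ducksalad were co-sown in alluvial soil flooded to 4 cm and grown in a greenhouse at 25 to 30° C. At the 1- or 2-leaf stage, water-diluted emulsifiable concentrates went onto the water surface at set doses (g/a). Herbicidal effect was scored three weeks later on a graded scale.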

[31] = system: barnyardgrass; assay: as above; conditions: treatment during the vegetation period under submerged conditions; dose 2.52 g/a
Outline: as §4

[32] = system: ducksalad; assay: as above; conditions: treatment during the vegetation period under submerged conditions; dose 2.52 g/a
Outline: as §4

[33] = three weeks after the application

Question: With CCN1COCN(Cc2ccccc2N(C(=O)OCC(C)C)S(=O)(=O)C(F)(F)F)C1=O [IV-8] as the compound, how does the “J: common ragweed, herbicidal effect” value [1, 33] read?
Answer: 3 (mortality of at least 40% and less than 70%)

Question: And the “N: common chickweed, herbicidal effect” value [2, 33]?
Answer: 3 (mortality of at least 40% and less than 70%)

Question: And the “L: common lambsquater, herbicidal effect” value [3, 33]?
Answer: 0 (mortality of less than 5% (almost ineffective))

Question: And the “G: water foxtail, herbicidal effect” value [4, 33]?
Answer: 5 (mortality of 90% or above (nearly complete death))

Question: And the “A: barnyardgrass, herbicidal effect” value [5, 33]?
Answer: 5 (mortality of 90% or above (nearly complete death))

Question: And the “D: large crabgrass, herbicidal effect” value [6, 33]?
Answer: 4 (mortality of at least 70% and less than 90%)

Question: What about the “F: wild oat, herbicidal effect” value [7, 33] of the same compound?
Answer: 0 (mortality of less than 5% (almost ineffective))

Question: And the “K: redroot pigweed, herbicidal effect” value [8, 33]?
Answer: 0 (mortality of less than 5% (almost ineffective))

Question: And the “I: velvetleaf, herbicidal effect” value [9, 33]?
Answer: 3 (mortality of at least 40% and less than 70%)

Question: And the “H: Italian ryegrass, herbicidal effect” value [10, 33]?
Answer: 0 (mortality of less than 5% (almost ineffective))

Question: What about the “E: giant foxtail, herbicidal effect” value [11, 33] of the same compound?
Answer: 4 (mortality of at least 70% and less than 90%)

Question: What about the “O: beadstraw, herbicidal effect” value [12, 33] of the same compound?
Answer: 3 (mortality of at least 40% and less than 70%)

Question: What about the “M: posumbu knotweed, herbicidal effect” value [13, 33] of the same compound?
Answer: 0 (mortality of less than 5% (almost ineffective))

Question: And the “a: transplanted rice, effect on crop (evaluation scale 0-5)” value [14]?
Answer: 0 (mortality of less than 5% (almost ineffective))

Question: And the “herbicidal effect, J: common ragweed” value [15]?
Answer: 0 (mortality of less than 5% (almost ineffective))

Question: What about the “herbicidal effect, N: common chickweed” value [16] of the same compound?
Answer: 0 (mortality of less than 5% (almost ineffective))

Question: And the “herbicidal effect, L: common lambsquater” value [17]?
Answer: 0 (mortality of less than 5% (almost ineffective))

Question: And the “herbicidal effect, G: water foxtail” value [18]?
Answer: 5 (mortality of 90% or above (nearly complete death))

Question: What about the “herbicidal effect, A: barnyardgrass” value [19] of the same compound?
Answer: 4 (mortality of at least 70% and less than 90%)

Question: What about the “herbicidal effect, D: large crabgrass” value [20] of the same compound?
Answer: 1 (mortality of at least 5% and less than 20%)

Question: And the “herbicidal effect, F: wild oat” value [21]?
Answer: 0 (mortality of less than 5% (almost ineffective))

Question: What about the “herbicidal effect, K: redroot pigweed” value [22] of the same compound?
Answer: 0 (mortality of less than 5% (almost ineffective))

Question: What about the “herbicidal effect, I: velvetleaf” value [23] of the same compound?
Answer: 0 (mortality of less than 5% (almost ineffective))

Question: And the “herbicidal effect, H: Italian ryegrass” value [24]?
Answer: 0 (mortality of less than 5% (almost ineffective))

Question: What about the “herbicidal effect, E: giant foxtail” value [25] of the same compound?
Answer: 1 (mortality of at least 5% and less than 20%)

Question: And the “herbicidal effect, M: posumbu knotweed” value [26]?
Answer: 0 (mortality of less than 5% (almost ineffective))

Question: What about the “B: bulrush, herbicidal effect (evaluation scale 0-5)” value [27] of the same compound?
Answer: 5 (mortality of 90% or above (nearly complete death))

Question: What about the “A: barnyardgrass, herbicidal effect (evaluation scale 0-5)” value [28] of the same compound?
Answer: 5 (mortality of 90% or above (nearly complete death))

Question: What about the “C: ducksalad, herbicidal effect (evaluation scale 0-5)” value [29] of the same compound?
Answer: 4 (mortality of at least 70% and less than 90%)

Question: And the “B: bulrush, herbicidal effect (evaluation scale 0-5)” value [30]?
Answer: 5 (mortality of 90% or above (nearly complete death))

Question: What about the “A: barnyardgrass, herbicidal effect (evaluation scale 0-5)” value [31] of the same compound?
Answer: 5 (mortality of 90% or above (nearly complete death))

Question: What about the “C: ducksalad, herbicidal effect (evaluation scale 0-5)” value [32] of the same compound?
Answer: 4 (mortality of at least 70% and less than 90%)

Question: What does the source list for CCOC(=O)N(c1ccccc1CN1C(=O)COCC1C)S(=O)(=O)C(F)(F)F (stereo not shown) [Compound I-14]?
Answer: J: common ragweed, herbicidal effect ([1]; three weeks after application): 4 (mortality of at least 70% and less than 90%); N: common chickweed, herbicidal effect ([2]; three weeks after application): 4 (mortality of at least 70% and less than 90%); L: common lambsquater, herbicidal effect ([3]; three weeks after application): 5 (mortality of 90% or above (nearly complete death)); G: water foxtail, herbicidal effect ([4]; three weeks after application): 5 (mortality of 90% or above (nearly complete death)); A: barnyardgrass, herbicidal effect ([5]; three weeks after application): 5 (mortality of 90% or above (nearly complete death)); D: large crabgrass, herbicidal effect ([6]; three weeks after application): 4 (mortality of at least 70% and less than 90%); F: wild oat, herbicidal effect ([7]; three weeks after application): 0 (mortality of less than 5% (almost ineffective)); K: redroot pigweed, herbicidal effect ([8]; three weeks after application): 4 (mortality of at least 70% and less than 90%); I: velvetleaf, herbicidal effect ([9]; three weeks after application): 5 (mortality of 90% or above (nearly complete death)); H: Italian ryegrass, herbicidal effect ([10]; three weeks after application): 5 (mortality of 90% or above (nearly complete death)); E: giant foxtail, herbicidal effect ([11]; three weeks after application): 4 (mortality of at least 70% and less than 90%); O: beadstraw, herbicidal effect ([12]; three weeks after application): 4 (mortality of at least 70% and less than 90%); M: posumbu knotweed, herbicidal effect ([13]; three weeks after application): 4 (mortality of at least 70% and less than 90%); a: transplanted rice, effect on crop (evaluation scale 0-5) [14]: 0 (mortality of less than 5% (almost ineffective)); J: common ragweed, herbicidal effect (evaluation scale 0-5) [15]: 5 (mortality of 90% or above (nearly complete death)); N: common chickweed, herbicidal effect (evaluation scale 0-5) [16]: 5 (mortality of 90% or above (nearly complete death)); L: common lambsquater, herbicidal effect (evaluation scale 0-5) [17]: 5 (mortality of 90% or above (nearly complete death)); G: water foxtail, herbicidal effect (evaluation scale 0-5) [18]: 5 (mortality of 90% or above (nearly complete death)); A: barnyardgrass, herbicidal effect (evaluation scale 0-5) [19]: 5 (mortality of 90% or above (nearly complete death)); D: large crabgrass, herbicidal effect (evaluation scale 0-5) [20]: 5 (mortality of 90% or above (nearly complete death)); F: wild oat, herbicidal effect (evaluation scale 0-5) [21]: 4 (mortality of at least 70% and less than 90%); K: redroot pigweed, herbicidal effect (evaluation scale 0-5) [22]: 5 (mortality of 90% or above (nearly complete death)); I: velvetleaf, herbicidal effect (evaluation scale 0-5) [23]: 5 (mortality of 90% or above (nearly complete death)); H: Italian ryegrass, herbicidal effect (evaluation scale 0-5) [24]: 5 (mortality of 90% or above (nearly complete death)); E: giant foxtail, herbicidal effect (evaluation scale 0-5) [25]: 5 (mortality of 90% or above (nearly complete death)); M: posumbu knotweed, herbicidal effect (evaluation scale 0-5) [26]: 5 (mortality of 90% or above (nearly complete death)); B: bulrush, herbicidal effect (evaluation scale 0-5) [27]: 5 (mortality of 90% or above (nearly complete death)); A: barnyardgrass, herbicidal effect (evaluation scale 0-5) [28]: 5 (mortality of 90% or above (nearly complete death)); C: ducksalad, herbicidal effect (evaluation scale 0-5) [29]: 5 (mortality of 90% or above (nearly complete death)); B: bulrush, herbicidal effect (evaluation scale 0-5) [30]: 5 (mortality of 90% or above (nearly complete death)); A: barnyardgrass, herbicidal effect (evaluation scale 0-5) [31]: 5 (mortality of 90% or above (nearly complete death)); C: ducksalad, herbicidal effect (evaluation scale 0-5) [32]: 5 (mortality of 90% or above (nearly complete death))
